Counter-ions that a name gives are not always drawn.
target: cloned human P2Y1 receptors (Homo sapiens (Human), UniProt P47900); experiment: Binding Assay B - Scintillation Proximity Assay (SPA) for P2Y1 binding, [33P] 2MeS-ADP; details: SPA, 0.3 nM [33P] 2MeS-ADP, Cheng-Prusoff; read-out: P2Y1 Ki (nM) using binding assay B
Protocol: Binding Assay B—Scintillation Proximity Assay (SPA) for P2Y1 Binding
A SPA membrane binding assay was used to identify inhibitors of [^33P] […] Reactions were allowed to proceed to completion at room temperature for 1 hour followed by centrifugation of the plate for 5 min. About 40 μL of the aqueous solution was aspirated. Plates were sealed and the [^33P]

cloned human P2Y1 receptors, sequence (P47900 whole entry): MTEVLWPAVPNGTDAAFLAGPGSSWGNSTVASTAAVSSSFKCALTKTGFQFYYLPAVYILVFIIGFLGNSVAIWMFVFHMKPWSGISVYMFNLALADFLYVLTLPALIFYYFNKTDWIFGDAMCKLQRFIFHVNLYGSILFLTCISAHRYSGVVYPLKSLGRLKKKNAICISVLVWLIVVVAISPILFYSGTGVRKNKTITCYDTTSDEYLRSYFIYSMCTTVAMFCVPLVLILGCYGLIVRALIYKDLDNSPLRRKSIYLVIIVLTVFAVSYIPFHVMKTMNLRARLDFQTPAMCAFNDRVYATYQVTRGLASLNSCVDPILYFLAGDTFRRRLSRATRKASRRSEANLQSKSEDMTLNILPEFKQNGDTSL

Compound	Ki
CC(C)(C)c1ccc(NC(=O)Nc2ccccc2N2CC(C)(C)c3ccccc32)cc1 [Comparator 1, reference compound]	12.9 nM
CC1(C)CN(c2ccccc2NC(=O)Nc2ccc(OC(F)(F)F)cc2)c2ccccc21 [Comparator 2, reference compound]	8.7 nM
CC(C)(C)c1ccccc1Oc1ncccc1NC(=O)Nc1ccccc1N1CC(C)(C)c2ccccc21 [Comparator 3, reference compound]	759 nM
CC1(C)CN(c2ccccc2NC(=O)Nc2nc3ccc(F)cc3s2)c2c(O)ccc(Br)c21 [Example 1, 1-(2-(4-Bromo-7-hydroxy-3,3-dimethylindolin-1-yl)phenyl)-3-(6-fluorobenzo[d]thiazol-2-yl)urea]	10.8 nM
CC1(C)CN(c2ccccc2NC(=O)Nc2ccc(OC(F)(F)F)cc2)c2c(O)cc(F)c(-c3ccc(C(F)(F)F)cc3)c21 [Example 222, 1-(2-(5-Fluoro-7-hydroxy-3,3-dimethyl-4-(4-(trifluoromethyl)phenyl)indolin-1-yl)phenyl)-3-(4-(trifluoromethoxy)phenyl)urea]	35 nM
CC1(C)CN(c2ccccc2NC(=O)Nc2csc(C(F)(F)F)n2)c2c(O)cc(F)c(-c3ccc(Cl)cc3)c21 [Example 223, 1-(2-(4-(4-Chlorophenyl)-5-fluoro-7-hydroxy-3,3-dimethylindolin-1-yl)phenyl)-3-(2-(trifluoromethyl)thiazol-4-yl)urea]	34.4 nM

tested on: human platelet rich plasma (PRP); experiment: ADP induced platelet aggregation assay; details: Homo sapiens, Platelet, 5 min, read-out: PA IC50 (μM) @ 10 μM ADP, human PRP, 10 μM ADP, AUC at 5 minute

Compound	IC50
CC(C)(C)c1ccc(NC(=O)Nc2ccccc2N2CC(C)(C)c3ccccc32)cc1 [Comparator 1, reference compound]	> 20 µM
CC1(C)CN(c2ccccc2NC(=O)Nc2ccc(OC(F)(F)F)cc2)c2ccccc21 [Comparator 2, reference compound]	> 20 µM
CC(C)(C)c1ccccc1Oc1ncccc1NC(=O)Nc1ccccc1N1CC(C)(C)c2ccccc21 [Comparator 3, reference compound]	> 20 µM
CC1(C)CN(c2ccccc2NC(=O)Nc2nc3ccc(F)cc3s2)c2c(O)ccc(Br)c21 [Example 1, 1-(2-(4-Bromo-7-hydroxy-3,3-dimethylindolin-1-yl)phenyl)-3-(6-fluorobenzo[d]thiazol-2-yl)urea]	0.47 µM
CCC1(CC)CN(c2ccccc2NC(=O)Nc2nc3ccc(F)cc3s2)c2c(O)ccc(F)c21 [Example 32, 1-(2-(3,3-Diethyl-4-fluoro-7-hydroxyindolin-1-yl)phenyl)-3-(6-fluorobenzo[d]thiazol-2-yl)urea]	0.37 µM
CC1(C)CN(c2ccccc2NC(=O)Nc2ccc(OC(F)(F)F)cc2)c2c(O)ccc(-c3ccc(F)nc3)c21 [Example 115, 1-(2-(4-(6-Fluoropyridin-3-yl)-7-hydroxy-3,3-dimethylindolin-1-yl)phenyl)-3-(4-(trifluoromethoxy)phenyl) urea]	0.31 µM
COc1cncc(-c2ccc(O)c3c2C(C)(C)CN3c2ccccc2NC(=O)Nc2ccc(OC(F)(F)F)cc2)c1 [Example 118, 1-(2-(7-Hydroxy-4-(5-methoxypyridin-3-yl)-3,3-dimethylindolin-1-yl)phenyl)-3-(4-(trifluoromethoxy)phenyl) urea]	0.6 µM
CC1(C)CN(c2ccccc2NC(=O)Nc2ccc(OC(F)(F)F)cc2)c2c(O)ccc(-c3ccc(Cl)cn3)c21 [Example 122, 1-(2-(4-(5-Chloropyridin-2-yl)-7-hydroxy-3,3-dimethylindolin-1-yl)phenyl)-3-(4-(trifluoromethoxy)phenyl)urea]	0.51 µM
CC1(C)CN(c2ccccc2NC(=O)Nc2ccc(OC(F)(F)F)cc2)c2c(O)ccc(-c3nc4ccc(Cl)cc4s3)c21 [Example 136, 1-(2-(4-(6-Chlorobenzo[d]thiazol-2-yl)-7-hydroxy-3,3-dimethylindolin-1-yl)phenyl)-3-(4-(trifluoromethoxy)phenyl)urea]	0.5 µM
CC1(C)CN(c2ccccc2NC(=O)Nc2nc3ccc(F)cc3s2)c2c(O)ccc(-c3nc4ccc(Cl)cc4s3)c21 [Example 137, 1-(2-(4-(6-Chlorobenzo[d]thiazol-2-yl)-7-hydroxy-3,3-dimethylindolin-1-yl)phenyl)-3-(6-fluorobenzo[d]thiazol-2-yl)urea]	1.06 µM
CC1(C)CN(c2ccccc2NC(=O)Nc2nc3ccc(F)cc3s2)c2c(O)cc(F)c(-c3nc4cc(Cl)ccc4s3)c21 [Example 138, 1-(2-(4-(5-Chlorobenzo[d]thiazol-2-yl)-5-fluoro-7-hydroxy-3,3-dimethylindolin-1-yl)phenyl)-3-(6-fluorobenzo[d]thiazol-2-yl)urea]	0.47 µM
CC1(C)CN(c2ccccc2NC(=O)Nc2nc3ccc(Cl)cc3s2)c2c(O)cc(F)c(-c3nc4ccc(F)cc4s3)c21 [Example 139, 1-(6-Chlorobenzo[d]thiazol-2-yl)-3-(2-(5-fluoro-4-(6-fluorobenzo[d]thiazol-2-yl)-7-hydroxy-3,3-dimethylindolin-1-yl)phenyl)urea]	0.57 µM
CC1(C)CN(c2ccccc2NC(=O)Nc2nc3ccc(F)cc3s2)c2c(O)cc(F)c(-c3ccc(Cl)s3)c21 [Example 140, 1-(2-(4-(5-Chlorothiophen-2-yl)-5-fluoro-7-hydroxy-3,3-dimethylindolin-1-yl)phenyl)-3-(6-fluorobenzo[d]thiazol-2-yl)urea]	0.17 µM
CC1(C)CN(c2ccccc2NC(=O)Nc2nc3ccc(Cl)nc3s2)c2c(O)cc(F)c(-c3nc4cc(Cl)ccc4s3)c21 [Example 141, 1-(2-(4-(5-Chlorobenzo[d]thiazol-2-yl)-5-fluoro-7-hydroxy-3,3-dimethylindolin-1-yl)phenyl)-3-(5-chlorothiazolo[5,4-b]pyridin-2-yl)urea]	0.55 µM
CC1(C)CN(c2ccccc2NC(=O)Nc2ccc(OC(F)(F)F)cc2)c2c(O)cc(F)c(-c3ccc(Cl)s3)c21 [Example 142, 1-(2-(4-(5-Chlorothiophen-2-yl)-5-fluoro-7-hydroxy-3,3-dimethylindolin-1-yl)phenyl)-3-(4-(trifluoromethoxy)phenyl)urea]	0.13 µM
CC1(C)CN(c2ccccc2NC(=O)Nc2nc3ccc(Cl)nc3s2)c2c(O)cc(F)c(-c3nc4ccc(F)cc4s3)c21 [Example 143, 1-(5-Chlorothiazolo[5,4-b]pyridin-2-yl)-3-(2-(5-fluoro-4-(6-fluorobenzo[d]thiazol-2-yl)-7-hydroxy-3,3-dimethylindolin-1-yl)phenyl)urea]	0.33 µM
CC1(C)CN(c2ccccc2NC(=O)Nc2nc3ccc(Cl)nc3s2)c2c(O)cc(F)c(-c3ccc(Cl)s3)c21 [Example 145, 1-(5-Chlorothiazolo[5,4-b]pyridin-2-yl)-3-(2-(4-(5-chlorothiophen-2-yl)-5-fluoro-7-hydroxy-3,3-dimethylindolin-1-yl)phenyl)urea]	0.13 µM
CC1(C)CN(c2ccccc2NC(=O)Nc2nc3ccc(Cl)cc3s2)c2c(O)cc(F)c(-c3nc4cc(Cl)ccc4s3)c21 [Example 156, 1-(6-Chlorobenzo[d]thiazol-2-yl)-3-(2-(4-(5-chlorobenzo[d]thiazol-2-yl)-5-fluoro-7-hydroxy-3,3-dimethylindolin-1-yl)phenyl)urea]	0.97 µM
CC1(C)CN(c2ccccc2NC(=O)Nc2ccc(OC(F)(F)F)cc2)c2c(O)cc(F)c(-c3ncc(Br)cn3)c21 [Example 166, 1-(2-(4-(5-Bromopyrimidin-2-yl)-5-fluoro-7-hydroxy-3,3-dimethylindolin-1-yl)phenyl)-3-(4-(trifluoromethoxy)phenyl)urea]	1.25 µM
CC1(C)CN(c2ccccc2NC(=O)Nc2csc(Cl)n2)c2c(O)cc(F)c(-c3nc4cc(Cl)ccc4s3)c21 [Example 167, 1-(2-(4-(5-Chlorobenzo[d]thiazol-2-yl)-5-fluoro-7-hydroxy-3,3-dimethylindolin-1-yl)phenyl)-3-(2-chlorothiazol-4-yl)urea]	0.47 µM
CC1(C)CN(c2ccccc2NC(=O)Nc2csc(Cl)n2)c2c(O)cc(F)c(-c3ccc(C(F)(F)F)cn3)c21 [Example 169, 1-(2-Chlorothiazol-4-yl)-3-(2-(5-fluoro-7-hydroxy-3,3-dimethyl-4-(5-(trifluoromethyl)pyridin-2-yl)indolin-1-yl)phenyl)urea]	0.1 µM
CC1(C)CN(c2ccccc2NC(=O)Nc2nc3ccc(Cl)cc3s2)c2c(O)ccc(-c3nc4cc(F)ccc4s3)c21 [Example 172, 1-(6-Chlorobenzo[d]thiazol-2-yl)-3-(2-(4-(5-fluorobenzo[d]thiazol-2-yl)-7-hydroxy-3,3-dimethylindolin-1-yl)phenyl)urea, TFA]	0.26 µM
CC1(C)CN(c2ccccc2NC(=O)Nc2ccc(OC(F)(F)F)cc2)c2c(O)c(F)cc(-c3nc4cc(Cl)ccc4s3)c21 [Example 177, 1-(2-(4-(5-Chlorobenzo[d]thiazol-2-yl)-6-fluoro-7-hydroxy-3,3-dimethylindolin-1-yl)phenyl)-3-(4-(trifluoromethoxy)phenyl)urea]	2.3 µM
COC(=O)c1ccc(-c2c(F)cc(O)c3c2C(C)(C)CN3c2ccccc2NC(=O)Nc2ccc(OC(F)(F)F)cc2)cc1 [Example 244, Methyl 4-(5-fluoro-7-hydroxy-3,3-dimethyl-1-(2-(3-(4-(trifluoromethoxy)phenyl)ureido)phenyl)indolin-4-yl)benzoate]	0.3 µM
CC1(C)CN(c2ccccc2NC(=O)Nc2ccc(OC(F)(F)F)cc2)c2c(O)cc(F)c(-c3cc(C(F)(F)F)n[nH]3)c21 [Example 275, 1-(2-(5-Fluoro-7-hydroxy-3,3-dimethyl 4-(3-(trifluoromethyl)-1H-pyrazol-5-yl)indolin-1-yl)phenyl)-3-(4-(trifluoromethoxy)phenyl)urea]	5.69 µM

same assay, conditions: read-out: PA IC50 (μM) @ 10 μM ADP; human PRP, 10 μM ADP, AUC at 5 minute

Compound	IC50
CC1(C)CN(c2ccccc2NC(=O)Nc2nc3ccc(F)cc3s2)c2c(O)cc(F)c(-c3ccc(F)cc3)c21 [Example 219, 1-(2-(5-Fluoro-4-(4-fluorophenyl)-7-hydroxy-3,3-dimethylindolin-1-yl)phenyl)-3-(6-fluorobenzo[d]thiazol-2-yl)urea]	0.36 µM
CC1(C)CN(c2ccccc2NC(=O)Nc2ccc(OC(F)(F)F)cc2)c2c(O)cc(F)c(-c3ccc(Cl)cc3)c21 [Example 220, 1-(2-(4-(4-Chlorophenyl)-5-fluoro-7-hydroxy-3,3-dimethylindolin-1-yl)phenyl)-3-(4-(trifluoromethoxy)phenyl)urea]	0.24 µM
CC1(C)CN(c2ccccc2NC(=O)Nc2csc(Cl)n2)c2c(O)cc(F)c(-c3ccc(Cl)cc3)c21 [Example 221, 1-(2-(4-(4-Chlorophenyl)-5-fluoro-7-hydroxy-3,3-dimethylindolin-1-yl)phenyl)-3-(2-chlorothiazol-4-yl)urea]	0.13 µM

Source: patent US9540323B2 (BRISTOL-MYERS SQUIBB COMPANY, priority 2012, dated 2017)
